# Biological target: Nitric oxide synthase 1 (Homo sapiens, UniProt P29475)
# Sequence (P29475 whole entry): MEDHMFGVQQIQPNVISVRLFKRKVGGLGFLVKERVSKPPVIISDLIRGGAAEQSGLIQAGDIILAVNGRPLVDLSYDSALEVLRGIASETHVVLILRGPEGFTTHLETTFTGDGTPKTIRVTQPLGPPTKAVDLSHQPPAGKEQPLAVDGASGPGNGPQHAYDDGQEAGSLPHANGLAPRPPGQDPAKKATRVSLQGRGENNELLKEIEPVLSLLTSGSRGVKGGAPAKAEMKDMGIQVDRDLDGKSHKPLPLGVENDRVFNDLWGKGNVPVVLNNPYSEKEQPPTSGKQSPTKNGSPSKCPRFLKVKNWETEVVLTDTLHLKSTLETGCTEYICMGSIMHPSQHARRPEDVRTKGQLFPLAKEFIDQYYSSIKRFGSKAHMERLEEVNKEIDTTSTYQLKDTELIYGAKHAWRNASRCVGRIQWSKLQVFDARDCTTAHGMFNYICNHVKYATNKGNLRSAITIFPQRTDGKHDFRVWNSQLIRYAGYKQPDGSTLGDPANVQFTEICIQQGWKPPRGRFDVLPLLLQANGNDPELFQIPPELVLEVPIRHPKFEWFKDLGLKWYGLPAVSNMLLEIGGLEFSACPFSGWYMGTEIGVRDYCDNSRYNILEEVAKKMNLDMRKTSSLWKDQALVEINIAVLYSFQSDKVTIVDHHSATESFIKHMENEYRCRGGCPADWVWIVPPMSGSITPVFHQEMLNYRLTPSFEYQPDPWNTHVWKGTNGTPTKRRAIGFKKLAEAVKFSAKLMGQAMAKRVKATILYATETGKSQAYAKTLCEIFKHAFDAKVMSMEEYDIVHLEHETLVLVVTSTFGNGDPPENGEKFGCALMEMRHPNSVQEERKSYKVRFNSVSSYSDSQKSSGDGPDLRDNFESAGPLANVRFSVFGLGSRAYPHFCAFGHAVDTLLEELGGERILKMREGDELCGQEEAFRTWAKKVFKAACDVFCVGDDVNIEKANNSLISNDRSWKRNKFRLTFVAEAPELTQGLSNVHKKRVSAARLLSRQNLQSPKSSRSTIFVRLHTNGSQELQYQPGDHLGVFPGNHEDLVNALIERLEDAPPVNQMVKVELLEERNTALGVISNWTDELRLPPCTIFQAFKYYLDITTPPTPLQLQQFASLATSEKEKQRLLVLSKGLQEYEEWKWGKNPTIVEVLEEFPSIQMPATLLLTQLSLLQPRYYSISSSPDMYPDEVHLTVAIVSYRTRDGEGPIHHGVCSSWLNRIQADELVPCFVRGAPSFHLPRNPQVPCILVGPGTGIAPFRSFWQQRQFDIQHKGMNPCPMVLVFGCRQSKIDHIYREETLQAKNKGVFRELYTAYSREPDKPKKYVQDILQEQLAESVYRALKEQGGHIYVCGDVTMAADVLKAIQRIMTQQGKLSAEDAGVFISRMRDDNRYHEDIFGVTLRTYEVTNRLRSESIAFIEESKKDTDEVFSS
compound,measurement,value
Cc1cc(N)nc(CCc2cc(CCCN(C)C)cc(F)c2F)c1,Ki,29 nM
